pIC50: −log10 of the molar value. Where “and” joins values, the source holds several entries; their conditions need not be identical. Equal entries are not always repeated. Calls of active or inactive are those of the source.
What was measured:
[1] = CEM21 cell cytotoxicity, dose response, cytotoxicity control, plate reader, dry powder (AID 687026); format: functional, cell-based
[2] = HIV Env cell-cell fusion inhibitors, dose response, HIV entry, plate reader, dry powder (AID 687023); format: functional, cell-based
[3] = molecular target: Metabotropic glutamate receptor 3 (Rattus norvegicus, UniProt P31422); experiment: mGlu3 negative allosteric modulator potency, dose response, HEK/GIRK cells, thallium flux, rat (AID 651839); format: functional
[4] = cytotoxicity toward NIH3T3 fibroblasts, dose response, counter-screen, cell-based, ATP luminescence, mouse fibroblasts (AID 2010); format: functional;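 note: cells exposed to compound for about 90 hours before reading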
[5] = HeLa cell cytotoxicity, dose response, cytotoxicity control, 24 h, plate reader, powder samples, set 3 (AID 651864); format: functional, cell-based
[6] = inhibitors of intracellular T. cruzi replication, confirmation, NIH3T3 host cells, beta-gal luminescence (AID 2044); format: functional, cell-based;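 note: intracellular parasites grown in NIH/3T3 mouse fibroblasts as host cells; luminescent beta-galactosidase reporter signal from transgenic T. cruzi replicating inside host cells; inhibitors lower the luminescence signal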
[7] = growth inhibition of intracellular T. cruzi, dose response, cell-based, plate reader, dry powder samples (AID 651845); format: functional
[8] = T. cruzi intracellular amastigote growth inhibition, dose response, imaging, CA-I/72 strain, bovine embryo skeletal muscle, dry powder (AID 651885); format: functional, cell-based
[9] = T. cruzi growth inhibition in host cells, dose response, cell-based, plate reader, dry powder, set 2 (AID 652275); format: functional
[10] = molecular target: T1, Oxysterols receptor LXR-beta (Homo sapiens, UniProt P55055); format: functional, cell-based;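 note: agonist activity at LXR measured by a cell-based luminescence readout across a dose range, run as a counterscreen for daf-12 agonists; HEK293 cells with Gal4-LXR fusion and GAL4-driven luciferase reporter; potency for activation of Gal4-LXR reporter so compounds are agonists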
T1 sequence (P55055 whole entry): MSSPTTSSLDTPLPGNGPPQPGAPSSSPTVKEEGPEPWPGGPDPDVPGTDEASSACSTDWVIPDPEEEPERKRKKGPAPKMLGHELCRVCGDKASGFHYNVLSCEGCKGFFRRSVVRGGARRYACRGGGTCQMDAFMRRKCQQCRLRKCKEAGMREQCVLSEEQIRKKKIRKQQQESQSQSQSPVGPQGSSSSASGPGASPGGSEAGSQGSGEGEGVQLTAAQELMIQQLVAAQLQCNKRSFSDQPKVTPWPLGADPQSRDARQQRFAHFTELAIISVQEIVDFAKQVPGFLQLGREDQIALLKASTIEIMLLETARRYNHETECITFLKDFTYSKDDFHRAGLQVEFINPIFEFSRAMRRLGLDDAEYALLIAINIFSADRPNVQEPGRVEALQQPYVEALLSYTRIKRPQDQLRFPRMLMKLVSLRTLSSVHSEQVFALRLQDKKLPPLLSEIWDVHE

[11] = HepG2 cell cytotoxicity, dose response, cytotoxicity control, ATP luminescence, cherry-pick, activator set 2 (AID 1053143); format: functional, cell-based
[12] = inhibitors of non-replicating M. tuberculosis, dose response, luciferase, dry powder (AID 651619); format: functional; settings: Mycobacterium tuberculosis
[13] = inhibitors of non-replicating M. tuberculosis, dose response, luciferase, dry powder (AID 651620); format: functional; settings: Mycobacterium tuberculosis

Metabotropic glutamate receptor 3, sequence (P31422 whole entry): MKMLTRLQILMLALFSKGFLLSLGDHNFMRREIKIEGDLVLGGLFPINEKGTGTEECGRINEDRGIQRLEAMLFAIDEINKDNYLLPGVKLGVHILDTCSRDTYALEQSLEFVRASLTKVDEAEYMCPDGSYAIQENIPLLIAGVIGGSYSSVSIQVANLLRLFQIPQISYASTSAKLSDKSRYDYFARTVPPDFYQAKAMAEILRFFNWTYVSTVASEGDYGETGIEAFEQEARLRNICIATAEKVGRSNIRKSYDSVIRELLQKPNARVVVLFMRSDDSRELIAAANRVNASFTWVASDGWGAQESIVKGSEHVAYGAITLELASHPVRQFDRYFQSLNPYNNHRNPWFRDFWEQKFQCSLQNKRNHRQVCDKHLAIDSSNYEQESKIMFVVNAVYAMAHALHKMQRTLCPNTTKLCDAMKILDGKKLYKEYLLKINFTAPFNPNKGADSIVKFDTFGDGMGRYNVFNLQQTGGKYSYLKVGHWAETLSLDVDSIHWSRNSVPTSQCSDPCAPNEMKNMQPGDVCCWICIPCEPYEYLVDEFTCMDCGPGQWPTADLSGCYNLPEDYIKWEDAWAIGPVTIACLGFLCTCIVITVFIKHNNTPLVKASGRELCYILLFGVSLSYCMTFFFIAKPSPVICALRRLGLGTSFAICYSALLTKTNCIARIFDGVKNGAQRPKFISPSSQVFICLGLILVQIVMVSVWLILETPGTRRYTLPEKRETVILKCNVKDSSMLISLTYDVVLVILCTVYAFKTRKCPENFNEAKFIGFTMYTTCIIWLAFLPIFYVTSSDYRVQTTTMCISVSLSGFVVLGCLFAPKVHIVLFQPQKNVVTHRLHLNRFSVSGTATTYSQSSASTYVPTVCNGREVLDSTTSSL

## CCOc1ccc(S(=O)(=O)NCc2ccccc2)cc1
[1]
  AC50: > 70 µM (inactive)
[2]
  AC50: 66.7 µM (active) and > 70 µM (inactive)

## COc1ccc(-c2ccc3cc(C(=O)N4CCCC(CO)C4)ccc3c2)cc1OC (centres undefined)
[3]
  pIC50: 5.58

## CC(C)N1CCc2c(sc(NC(=O)Cc3ccccc3)c2C#N)C1
cells
  AC50: 10.8 µM (active)

## CCC(C)NC(=O)Cc1ccc(-c2ccccc2)cc1 (centres undefined)
[4]
  EC50: > 60 µM (not active)
[5]
  AC50: 141 µM (active)
[6]
  EC50: 0.794 µM (active)

## CC(C)N1C[C@@H](C)[C@H](CN(C)Cc2cccc(Oc3ccccc3)c2)Oc2c(NC(=O)c3ccncc3)cccc2C1=O
[7]
  AC50: 0.00713 µM (active)
[8]
  IC50: 1.5 µM (inconclusive)
[9]
  AC50: 75 pM (active)

## Cc1nc2[nH]c(-c3cccs3)nc2cc1Br
[10]
  EC50: > 67.5 µM (inactive)
[11]
  AC50: 26 µM (active)

## [N-]=[N+]=NCCOCCNC(=O)CCCOc1ccc(C[S+]([O-])c2nnc(-c3ccc(F)cc3)o2)nc1 (centres undefined)
[12]
  IC90: 8 µM (active)
[13]
  IC90: 8 µM (active)

From ChEMBL document CHEMBL1201862, “PubChem BioAssay data set” (2004)
